Test results taken from patent publication US7074768B2, “Modified protein kinase A-specific oligonucleotides and methods of their use” (Idera Pharmaceuticals, Inc., priority 1995, dated 2006).

Columns and labels:
[1] = system: Factor VIII related antigen; experiment: Tumor-induced neovascularization (anti-Factor VIII related antigen immunohistochemistry); assay type: in vivo
Source text: In recent years, the critical role of tumor-induced neovascularization in neoplastic development, progression and metastasis has been elucidated (J. I. Fokman, In: J. Mendelsohn et al., eds., The Molecular Basis of Cancer, pp 206–232, Philadelphia: W B Saunders (1995) . A reliable histologic estimate of novel blood vessels on tumor specimens is the microvessel count (MVC) in the most intense areas of neovascularization. In the present study, tumor-induced neovascularization was quantified by immunohistochemistry using an anti-Factor VIII related antigen monoclonal antibody (N. Weidner, Breast Cancer Res. Treat., 36:169–180 (1995)).

[2] = system: p27; experiment: Histochemical analysis of GEO tumors: p27; assay type: in vivo
Source text: Tumor specimens from the different groups of mice were examined by histochemical analysis at different time points to evaluate the expression of a variety of biological parameters. […] No other treatment was able to affect RIα expression.
Loda et al. (Nature Medicine 3:231–234 (1997)) discloses that the cyclin-dependent kinase (CDK) inhibitor p27 is […] related to cell entry into S phase and proliferation and that reduction of its expression correlates with poor prognosis in colon cancer patients.

[3] = system: GEO colon cancer xenografts; experiment: GEO colon cancer xenografts in nude mice (tumor growth, survival); assay type: in vivo; conditions: for inhibition of tumor growth: 10 mg/kg/dose
Method: We investigated the antitumor activity of HYB 165 (AS RIα) in nude mice bearing GEO colon cancer xenografts, using either the intraperitoneal (i.p.) or the oral route of administration. When established GEO tumors of approximately […] were detectable, groups of 10 mice were treated i.p. with either HYB 165 or a control modified backbone oligonucleotide with a scrambled sequence, at 5 or 10 mg/kg/dose, daily on days 7 to 11 and 14 to 18. […] The control oligonucleotide produced no inhibition at 10 mg/kg/dose.
Following oral administration, modified backbone oligonucleotides (MBOs) are absorbed in the upper and lower part of the GI tract and distributed to major organs (S. Agrawal and R. Zhang, In: Antisense Research and Application, S. T. Crooke, ed.), Handbook of Experimental Pharmacology, Springer, Berlin, p. 525–543 (1998). Therefore, HYB 165 and the control oligonucleotide were administered to GEO tumor-bearing mice as described above, except that HYB 165 and the control oligonucleotide were administered orally.
On day 7 after tumor cell injection, one group of 10 mice was treated with taxol (20 mg/kg/dose, i.p.), and the treatment was repeated every 2 weeks (on day 21 and day 35) for a total of three cycles. Two other groups of mice were treated with either HYB 165 (AS RIα) or a control MBO with a scrambled sequence (10 mg/kg/dose, p.o.), daily for five days (days 8–12). Treatment was repeated every 2 weeks (days 22–26 and days 36–40) for a total of three cycles. Two more groups of mice were treated with taxol and either HYB 165 or the control MBO, administering the taxol (20 mg/kg/dose, i.p.) on day 7, followed by oral administration of either HYB 165 or the control MBO daily for five days (days 8–12). The sequential treatment was repeated with the same schedule every 2 weeks for a total of three cycles.

[4] = system: 1A9PTX22 human ovarian cancer cells; experiment: Soft agar growth of 1A9PTX22 cells; assay type: cell-based
Method: (§1) Cell lines. The 1A9PTX22 cell line, a paclitaxel (PTX)-resistant clone of the human ovarian carcinoma cell line 1A9, was isolated by exposing 1A9 cells to 5 ng/ml PTX in the presence of 5 μg/ml verapamil, a P glicoprotein antagonist. 1A9PTX22 cells were kindly provided by Dr. Giannakakou, NCI Bethesda, Md., USA. Cells were maintained in RPMI medium supplemented with 10% heat-inactivated FBS, 20 mM HEPES, pH 7.4 penicillin (100 UI/ml), streptomycin (100 μg/ml) and 4 mM glutamine (ICN, Irvine, UK) 15 ng/ml PIX and 5 μg/ml verapamil in a humified atmosphere of 95% air and 5% CO2 at 37° C. 7 days before experiments were performed, PTX and verapamil were removed from culture medium.
(§2) Soft agar growth. Cells (10^4 cells/well) were seeded in 0.5 ml of 0.3% Difco Noble agar (Difco, Detroit, Mich.) supplemented with complete culture medium. This suspension was layered over 0.5 ml of 0.8% agar-medium base layer in 24 multiwell cluster dishes (Becton Dickinson) and treated with various concentrations of HYB 165 or HYB508 every 4g hours for three times. After 12 days the cells were stained with nitroblue tetrazolium (Sigma, St. Louis, Mo.) and colonies larger than 0.05 mm were counted.

[5] = system: 1A9PTX10 human ovarian cancer cells; experiment: Soft agar growth of 1A9PTX10 cells; assay type: cell-based
Method: as §1, with “1A9PTX10” for “1A9PTX22”, “7.4,” for “7.4”, “PTX” for “PIX”
as §2, with “48” for “4g”

[6] = combined treatment with taxol and HYB 165

Which vessel formation [1, 6] does the source give for “HYB 165: Hybrid 18-mer mixed backbone antisense to PKA RIα, GCGUGCCTCCTCACUGGC (SEQ ID NO:4), 2-O-methyl ribonucleotides at 5′ and 3′ ends (sugars by position and backbone not given here; 2'-O-methyl ribonucleotides at both ends, mixed backbone)” here?
Its vessel formation is “completely suppressed vessel formation in GEO tumors”.

And the “inhibition of staining (microvessel count)” value ([1]; single agent, vs untreated mice or scramble MBO)?
The value was “about 80%”.

And the p27 expression ([2]; single agent)?
Its p27 expression is “able to increase p27 expression”.

And the “increase in intensely positive cell staining for p27” value ([2]; taxol and antisense RIα in combination)?
The value was 2.5 fold.

What about the “inhibition of tumor size” value ([3]; 10 mg/kg/dose p.o., at the completion of the three cycles of treatment) of the same substance?
Its value is “over 50%”.

And the tumor growth ([3]; MBO 10 mg/kg/dose p.o. in combination with taxol 20 mg/kg/dose i.p., three cycles)?
Its tumor growth is “marked and sustained inhibition of tumor growth”.

And the survival ([3]; MBO p.o. in combination with taxol i.p., three cycles)?
Its survival is “prolonged mouse life span”.

And the “tolerability (weight loss, signs of acute or delayed toxicity)” value [3, 6]?
The value was “well tolerated”.

What about the “inhibition of tumor growth” value ([3]; i.p., daily on days 7 to 11 and 14 to 18, FIG. 16A) of the same substance?
The value was “up to 40%”.

What about the “inhibition of tumor growth” value ([3]; oral, two cycles, vs untreated mice, FIG. 16B) of the same substance?
Its value is “about 60%”.

What about the tumor growth ([3]; single agent, three cycles (taxol 20 mg/kg/dose i.p.; MBO 10 mg/kg/dose p.o.), FIG. 17A) of the same substance?
Its tumor growth is “inhibited tumor growth”.

And the survival time ([3]; single agent, three cycles, FIG. 17B)?
The survival time was “increased survival time as compared to the control group”.

And the “time of very slow tumor growth following the end of treatment” value ([3]; taxol 20 mg/kg/dose i.p. and HYB 165 10 mg/kg/dose p.o., three cycles)?
The value was “approximately 60 days”.

And the “mice still alive after 15 weeks” value ([3]; taxol and HYB 165 in combination)?
Its value is “about 50%”.

What about the “inhibition of cell growth” value ([4]; 0.1 μM) of the same substance?
Its value is “approximately 5%”.

And the “inhibition of cell growth” value ([4]; 0.5 μM)?
The value was “about 50%”.

And the “inhibition of cell growth” value ([4]; 1 μM)?
Its value is “about 82%”.

And the “inhibition of cell growth” value ([4]; 2.5 μM)?
Its value is “over 95%”.

What about the “inhibition of cell growth” value ([5]; 0.1 μM) of the same substance?
Its value is “approximately 5%”.

And the “inhibition of cell growth” value ([5]; 0.5 μM)?
Its value is “about 43%”.

And the “inhibition of cell growth” value ([5]; 1 μM)?
The value was “about 70%”.

And the “inhibition of cell growth” value ([5]; 2.5 μM)?
Its value is “over 85%”.
